Experimental data from patent US20250338849A1 (priority 2022, published 2025).

Key:
Format in all cases: cell-based
[1] = tested on: Septoria tritici; experiment: Activity against leaf blotch on wheat caused by Septoria tritici (microtiter plate); settings: single active
[2] = tested on: Pyricularia oryzae; experiment: microbe, parasite or virus in culture; settings: for Observed efficacy: single active; for inhibition of growth at 4 ppm / inhibition of growth at 0.016 ppm / inhibition of growth at 0.063 ppm / inhibition of growth at 0.25 ppm / inhibition of growth at 1 ppm: Pyricularia oryzae, 168 h, read-out: Observed efficacy
[3] = tested on: Botrytis cinerea; experiment: Activity against the grey mold Botrytis cinerea in the microtiterplate test; settings: single active
[4] = Botrytis cinerea, 168 h, read-out: Observed efficacy
[5] = Zymoseptoria tritici, 168 h, 0.25 ppm, read-out: Observed efficacy
[6] = Zymoseptoria tritici, 168 h, read-out: Observed efficacy
[7] = Zymoseptoria tritici, 168 h, 0.016 ppm, read-out: Observed efficacy
[8] = Zymoseptoria tritici, 168 h, 0.063 ppm, read-out: Observed efficacy
[9] = Botrytis cinerea, 168 h, 0.063 ppm, read-out: Observed efficacy

O=C(NC1CCC1c1ccc(Cl)cc1Cl)c1cccnc1C(F)(F)F (stereo in doubt) [Cyclobutrifuram, cyclobutrifluram]
Observed efficacy ([1]; 0.25 ppm): 34% | Observed efficacy ([2]; 1 ppm): 14%

CO/C=C(/C(=O)OC)c1ccccc1Oc1cc(Oc2ccccc2C#N)ncn1 [Azoxystrobin, azoxystrobin]
Observed efficacy ([1]; 0.016 ppm): 3% | Observed efficacy ([1]; 0.063 ppm): 43% | Observed efficacy ([2]; 0.016 ppm): 59%

O=C(Nc1ccccc1-c1ccc(Cl)cc1)c1cccnc1Cl [Boscalid, boscalid]
inhibition of growth at 1 ppm [3, 4]: 76% | inhibition of growth at 0.25 ppm [1, 5]: 21% | inhibition of growth at 1 ppm [1, 6]: 62% | inhibition of growth at 4 ppm [2]: 12%

Cc1cc(C2=NC(C)(C)Oc3c2ccc(F)c3F)cnc1C(F)F [Compound 1-1]
inhibition of growth at 1 ppm [3, 4]: 33% | inhibition of growth at 0.004 ppm ([1]; Zymoseptoria tritici, 168 h, 0.004 ppm, read-out: Observed efficacy): 4% | inhibition of growth at 0.016 ppm [1, 7]: 3% | inhibition of growth at 0.063 ppm [1, 8]: 10% | inhibition of growth at 0.25 ppm [1, 5]: 22% | inhibition of growth at 0.016 ppm [2]: 8% | inhibition of growth at 0.063 ppm [2]: 10% | inhibition of growth at 0.25 ppm [2]: 21% | inhibition of growth at 1 ppm [2]: 65%

Cc1cc(C2=NC(C)(C)Oc3c(F)cccc32)cnc1C(F)F [Compound 1-2]
inhibition of growth at 1 ppm [3, 4]: 19% | inhibition of growth at 0.25 ppm [1, 5]: 0% | inhibition of growth at 1 ppm [1, 6]: 0% | inhibition of growth at 0.063 ppm [2]: 4% | inhibition of growth at 0.25 ppm [2]: 15% | inhibition of growth at 1 ppm [2]: 31%

COc1ccc2c(c1F)OC(C)(C)N=C2c1cnc(C(F)F)c(C)c1 [Compound 1-3]
inhibition of growth at 1 ppm [3, 4]: 12% | inhibition of growth at 0.063 ppm [1, 8]: 21% | inhibition of growth at 0.25 ppm [1, 5]: 20% | inhibition of growth at 1 ppm [1, 6]: 18% | inhibition of growth at 0.063 ppm [2]: 0% | inhibition of growth at 1 ppm [2]: 12%

CC1COC(Cn2cncn2)(c2ccc(Oc3ccc(Cl)cc3)cc2Cl)O1 (stereo not drawn) [Difenoconazol, difenoconazole]
inhibition of growth at 0.063 ppm [3, 9]: 8%

CNC(=O)/C(=N/OC)c1ccccc1COc1cc(C)ccc1C [Dimoxystrobin, dimoxystrobin]
Observed efficacy ([3]; 0.25 ppm): 2%

COc1ccnc(C(=O)N[C@@H](C)C(=O)O[C@@H](C)C(c2ccc(F)cc2)c2ccc(F)cc2)c1OC(C)=O [Florylpicoxamid, florylpicoxamid]
Observed efficacy ([1]; 0.016 ppm): 47% | Observed efficacy ([2]; 0.004 ppm): 28% | Observed efficacy ([2]; 0.016 ppm): 70%

O=[N+]([O-])c1cc(C(F)(F)F)c(Cl)c([N+](=O)[O-])c1Nc1ncc(C(F)(F)F)cc1Cl [Fluazinam, fluazinam]
inhibition of growth at 0.063 ppm [1, 8]: 5% | inhibition of growth at 0.063 ppm [2]: 19%

N#Cc1c[nH]cc1-c1cccc2c1OC(F)(F)O2 [Fludioxonil, fludioxonil]
inhibition of growth at 0.016 ppm [1, 7]: 1% | inhibition of growth at 0.016 ppm [2]: 14% | inhibition of growth at 0.063 ppm [2]: 45% | inhibition of growth at 0.25 ppm [2]: 69%

O=C(NCCc1ncc(C(F)(F)F)cc1Cl)c1ccccc1C(F)(F)F [Fluopyram, fluopyram]
inhibition of growth at 0.25 ppm [1, 5]: 33%

Cn1cc(C(=O)Nc2ccccc2-c2cc(F)c(F)c(F)c2)c(C(F)F)n1 [Fluxapyroxad, fluxapyroxad]
Observed efficacy ([3]; 0.063 ppm): 29% | Observed efficacy ([1]; 0.063 ppm): 27%

CC(C)NC(=O)N1CC(=O)N(c2cc(Cl)cc(Cl)c2)C1=O [Iprodion, iprodione]
inhibition of growth at 1 ppm [3, 4]: 52% | inhibition of growth at 1 ppm [1, 6]: 9% | inhibition of growth at 4 ppm [2]: 42%

Cc1cc(OC(C)C)ccc1C(=O)C(C)(C)NC(=O)c1sccc1C [Isofetamid, isofetamid]
Observed efficacy ([1]; 0.25 ppm): 45% | Observed efficacy ([2]; 4 ppm): 15%

Cc1cccc(-n2nnn(C)c2=O)c1COc1ccn(-c2ccc(Cl)cc2)n1 [Methyltetraprol, metyltetraprole]
Observed efficacy ([1]; 0.016 ppm): 51% | Observed efficacy ([2]; 0.016 ppm): 38%

CC(C)CC(C)c1sccc1NC(=O)c1cn(C)nc1C(F)(F)F (stereo not drawn) [Penthiopyrad, penthiopyrad]
inhibition of growth at 0.063 ppm [3, 9]: 10% | inhibition of growth at 0.063 ppm [1, 8]: 33%

OC(Cc1ccccc1Cl)(Cn1nc[nH]c1=S)C1(Cl)CC1 (stereo not drawn) [Prothioconazol, prothioconazole]
inhibition of growth at 1 ppm [3, 4]: 22% | inhibition of growth at 4 ppm ([3]; Botrytis cinerea, 168 h, 4 ppm, read-out: Observed efficacy): 58% | inhibition of growth at 0.25 ppm [1, 5]: 66% | inhibition of growth at 1 ppm [2]: 15%

CON(C(=O)c1cn(C)nc1C(F)F)C(C)Cc1c(Cl)cc(Cl)cc1Cl (stereo not drawn) [Pydiflumetofen, pydiflumetofen]
Observed efficacy ([3]; 0.063 ppm): 15% | Observed efficacy ([1]; 0.016 ppm): 67%

CC(C)(C)C(O)(CCc1ccc(Cl)cc1)Cn1cncn1 (stereo not drawn) [Tebuconazol, tebuconazole]
inhibition of growth at 0.25 ppm ([3]; Botrytis cinerea, 168 h, 0.25 ppm, read-out: Observed efficacy): 38% | inhibition of growth at 0.25 ppm [1, 5]: 50% | inhibition of growth at 0.25 ppm [2]: 10%

Cc1ccc(NC(=O)c2snnc2C)cc1Cl [Tiadinil, tiadinil]
inhibition of growth at 4 ppm ([1]; Zymoseptoria tritici, 168 h, 4 ppm, read-out: Observed efficacy): 10%
